This note sets out measurements from publication PMC12067444, “Synthesis and Pharmacological Characterization of Novel Peripheral Cannabinoid-1 Receptor Blockers Based on a Tricyclic Scaffold” (Journal of Medicinal Chemistry, 2025).

One data set in a line: in vitro. The conditions noted are these: mouse. The procedure:
(§1) Protein binding of test compound in mouse brain using equilibrium dialysis […]
(§2) method. Solution A (0. 5 mM) was prepared by mixing 10 µL of a 10 mM stock solution […]
(§3) with 190 µL of DMSO. Subsequently, Solution B (0.02 mM) was prepared by adding […]
(§4) 8 µL of solution A to 192 µL of 0.05 M sodium phosphate buffer. The final concentration of DMSO in Solution B was 4%.
(§5) A 96-well plate was initially prepared by dispensing 380 µL aliquots of brain […]
(§6) tissue into wells designated for the brain while t h e buffer was added to the remaining […]
(§7) wells to serve as a control. Subsequently, 20 µL of Solution B (containing 0.02 mM of […]
(§8) test and reference compounds) was spiked into the pre-loaded brain samples in the […]
(§9) plate. This step yielded a final test concentration of 1 µM, containing 0.2% DMSO. A duplicate system was establi shed for the dialysis sampl es wherein brain tissu e was prepared against buffer. Initially, 100 µL aliquots of blank dialysis buffer were applied to the receiver side of the dialysis chambers. Subsequently, 100 µL aliquots of the brain […]
(§10) tissue spiked with te st and reference compounds were applied to the donor side of the […]
(§11) T0 brain samples for initial concentrations were prepared in duplicate. A 25µL […]
(§12) aliquot of the brain spiked with test and reference compounds was transferred into a 96- […]
(§13) well sample preparation plate. An equivalent volume of blank buffer was then added […]
(§14) to each well. Af ter the 5-hour incubation period, aliquots of 25 µL wer e taken f r om t h e […]
(§15) dialysis apparatus's donor and receiver sides and transferred into new sample […]
(§16) preparation plates. An equal volume of the opposite matrix (blank buffer to brain and […]
(§17) vice versa) was added to each well, resulting in a final volume of 50 µL in each well.
(§18) The samples (both T0 and f i v e h) were then quenched with 200 µL of acetonitrile […]
(§19) containing internal standard (IS) and vortexed at 600 rpm for 10 minutes. After […]
(§20) vortexing, the samples were centrifuged at 5594 × g for 15 minutes. Subsequently, 50 […]
(§21) µL of the supernatants were transferred to a new 96-well plate and mixed with 50 µL […]
(§22) of Milli- Q water. T he sample plates wer e cover ed and stor ed in a f r eezer ( -20 ℃) until […]
(§23) respectively. For data analysis, the following equations wer e used:
(§24) % Bound = 100 × ([Donor]5h -[ Receiver] 5h) / [Donor] 5h
(§25) % Recovery= 100 × ([Donor]5h +[Receiver] 5h) / [Initial] 0h
(§26) Undiluted Fu (%) = (1/D) / [(1/Fu2-1 ) + 1/ D ]
(§27) Whereas; D: Dilution factor = Dilution factor of brain: 4

The test system of a further data set is mouse brain tissue. Nature of the data set: in vitro. The conditions noted are these: mouse, 5 h, 1 µM. The procedure:
as §1, §2, §3, §4, §5, §6, §7, §8, §9, §10, §11, §12, §13, §14, §15, §16, §17, §18, §19, §20, §21, §22, §23, §24, §25, §26, §27

A short description of data set [1]: Tissue distribution after acute oral administration. The conditions noted are these: male, C57Bl/6J, mouse, 1 mg/kg PO, 1 h post-acute administration. Type of data set: in vivo, mouse. The procedure:
Male C57Bl/6J mice aged 7–9 weeks (3–4 mice per compound) were fasted overnight before administering each test compound. The compounds were accurately weighed and mixed with an appropriate vehicle to prepare a clear oral solution. The formulations were freshly prepared on the dosing day, and the mice were administered the compound via oral gavage within 4 h of formulation preparation. 1, 2, 4, and 8 h after compound administration, the mice were euthanized, and approximately 200 μL of blood was collected via cardiac puncture for plasma preparation. Brain and liver tissues were harvested and processed for analysis. Sample analysis was performed using LC-MS/MS, as described in detail in the SI. […]
calculated using the equation:
Lucif er yellow = VV bbbbbbbbbbbbbbbbbbbb ×RR FFFF bbbbbbbbbbbbbbbbbbbb ×100 […]
Measurements of BNS808 using LC-MS/MS. MS/MS analyses were conducted using a Sciex QTRAP® 6500+ mass spectrometer (Framingham, MA, USA). Air was […]
Infinity 1031 nitrogen generator (Peak Scientific, Inchinnan, Scotland). Purified air […]
generator to ensure a continuous and stable air supply.

A further data set concerns mice. Nature of the data set: Cataleptic behavior (bar test) induced by WIN-55,212. Type of data set: in vivo, mouse. The settings on record: rimonabant 10 mg/kg PO, BNS808 1 mg/kg; 30 min before WIN-55,212 3 mg/kg IP; bar test at 60 min. The procedure: Catalepsy was assayed using the bar test. Mice were taken out of their home cages, and their forepaws were placed on a horizontal bar measuring 0.5 cm in diameter, positioned 4 cm above the bench surface. Typically, vehicle-treated mice released the bar within 2 s. Cataleptic behavior was defined as the mice remaining motionless, grasping onto the bar, with an arbitrary cutoff of 30 s. The CB1R antagonists, including rimonabant at doses 1 and 10 mg/kg and BNS808 at a dose of 1 mg/kg, were administered 30 min before the IP injection of 3 mg/kg WIN-55,212 (a CB1R agonist). The test was conducted 60 min after the administration of the agonist.

Data set [2] in a line: Brain compound levels in the CNS side-effect study (Figure 2H). Type of data set: in vivo. The conditions noted are these: male, C57Bl/6J, mouse, brain; rimonabant 10 mg/kg PO, 1 h after administration. The procedure:
The ability of BNS808 and rimonabant (as a positive control) to induce centrally mediated hyperactivity in mice (A–C). Wild-type, male, C57Bl/6J mice received a single dose of rimonabant (10 mg/kg, PO), BNS808 (1 or 10 mg/kg, PO) or vehicle, and the Promethion High-Definition Behavioral Phenotyping System monitored the activity profile. In addition, the ability of BNS808 and rimonabant (as a positive control) to inhibit the hypomotility induced by a CB1R receptor agonist (HU210; 30 μg/kg, IP) was tested in wild-type, male, C57Bl/6J mice which received a single dose of rimonabant (10 mg/kg, PO) or BNS808 (1 or 10 mg/kg, PO) or vehicle (D–F). […] Data represent the mean ± SEM from 4 to 8 mice per group. *P < 0.05 vs Vehicle-treated control. ^#P < 0.05 vs rimonabant.

Structures are written as SMILES. Read-outs that look alike come from different tables or passages of the source.

The compound `CC(=O)CC(c1ccccc1)c1c(O)c2ccccc2oc1=O` (centres unmarked) [Warfarin, reference compound] yielded a fraction unbound at 5 h, 1 µM in “in vitro” of 0.277. This compound also returned a fraction unbound at 5 h, 1 µM in “in vitro” (tissue homogenate) of 0.605. Further, in the data set on mouse brain tissue, the “Fraction of bound (%)” value stood at 39.5% and the “Undiluted Bound (%)” value is reported as 72.3%.
Consider `Cc1c(C(=O)NN2CCCCC2)nn(-c2ccc(Cl)cc2Cl)c1-c1ccc(Cl)cc1` [rimonabant], for which the Kp at 1 h is 4.28 in data set [1] (brain / plasma, read-out: brain-to-plasma (B/P) ratio) and 7.4 in data set [1] (liver / plasma, read-out: liver/plasma (L/P) ratio). Moreover, the concentration at 1 h in data set [1] (brain, read-out: brain concentration) was 128 ng/g; in data set [1] (liver, read-out: liver concentration) it was 226 ng/g; in data set [1] (plasma, read-out: plasma concentration), 30 ng/mL; in data set [2], 600 ng/g. In the data set on mice, the “blockade of WIN-55,212-induced cataleptic behavior” value was “blocked the cataleptic behavior”.
